Results on seven molecules are retold here after ChEMBL document CHEMBL3797023, “Irregularities in enzyme assays: The case of macrophage migration inhibitory factor” (Bioorg Med Chem Lett, 2016).

In brackets after ≈: the same amount, converted by molar mass.

The series can be described thus: Aqueous solubility of compound at pH 6.5 by shake-flask method. Format: physicochemical. Conditions: aqueous medium.
On to `Cc1ccc2oc(=O)n(Cc3cccc(O)c3)c2c1`, for which the solubility (thermodynamic) is 21.9 µg/mL (≈ 85.8 µM). Next, `O=C(O)c1cccc(NC(=S)NC(=O)c2ccc(-c3ccccc3)cc2)c1`: under 1 µg/mL; `COc1cc(-c2nc3ccccc3s2)cc(Br)c1OCC(=O)O`: 6 µg/mL (≈ 15.2 µM); `COc1ccc(C(=O)O)cc1NC(=S)NC(=O)c1cc2ccccc2o1`: under 5 µg/mL. Molecule `Oc1cc2c(cc1C(c1ccc(C(F)(F)F)cc1)N1CCOCC1)OCO2` (configuration not stated) came in with a thermodynamic solubility of 27.6 µg/mL (≈ 72.4 µM). `COCCOc1ccc2nc(-c3cn(-c4ccc(O)cc4)nn3)ccc2c1` showed a thermodynamic solubility of 3.6 µg/mL (≈ 9.93 µM). This solubility thermodynamic is about 7.7-fold lower than that of the molecule before. In the case of `Oc1ccc(-n2cc(-c3ccc4cc(OCCOCCN5CCOCC5)ccc4n3)nn2)cc1`, the thermodynamic solubility turned out to be 48.5 µg/mL (≈ 105 µM).
